Ten molecules from PMC3418399 (Molecular microbiology, 2012) can be followed below.

For one test, the system named is EL4-2 (CaCdr1p Q1226R). Briefly: MIC, liquid microdilution. Type of test: cell-based, Saccharomyces cerevisiae. The note with it: 48 h. (In general: Dilution methods test growth across graded concentrations, often in twofold steps.)
The subject of the next test is TM5 (CaCdr1p V674F). Briefly: MIC, liquid microdilution. The note with it: 48 h. Type of test: cell-based, Saccharomyces cerevisiae.
The next test concerns EL6 (CaCdr1p Q1445R). Briefly: MIC, liquid microdilution. The note with it: 48 h. Type of test: cell-based, Saccharomyces cerevisiae.
The test system of another test is EL4-1 (CaCdr1p Q1226K). Briefly: MIC, liquid microdilution. Type of test: cell-based, Saccharomyces cerevisiae. The note with it: 48 h.
The test system of test [1] is AD/CDR1 (Wild type CaCdr1p). Briefly: MIC, liquid microdilution. Type of test: cell-based, Saccharomyces cerevisiae. The note with it: 48 h.
Another test has as its system AD/pABC3 (Control). As to the kind of experiment: MIC, liquid microdilution. Type of test: cell-based, Saccharomyces cerevisiae. The note with it: 48 h.
The subject of the next test is EL1/TM2 (CaCdr1p G547R). Briefly: MIC, liquid microdilution. Type of test: cell-based, Saccharomyces cerevisiae. The note with it: 48 h.
Another test deals with EL3 (CaCdr1p Q714K). Briefly: MIC, liquid microdilution. Type of test: cell-based, Saccharomyces cerevisiae. The note with it: 48 h.
For another test, the target named is Cdr1p ATPase (Candida albicans, UniProt P43071). Briefly: CaCdr1p ATPase inhibition assay. Type of test: biochemical. The note with it: read-out: IC50 Cdr1p ATPase; wild type CaCdr1p, oligomycin-sensitive ATPase, pH 7.5.
[2] abbreviates: EL4-2, Q1226R, milbemycins and micafungin, I95, CSM pH 7.0, 30°C.
The mark [3] stands for this setting: TM5, V674F, milbemycins and micafungin, I95, CSM pH 7.0, 30°C.
[4] abbreviates: EL6, Q1445R, milbemycins and micafungin, I95, CSM pH 7.0, 30°C.
The mark [5] stands for this setting: EL4-1, Q1226K, milbemycins and micafungin, I95, CSM pH 7.0, 30°C.
Setting [6] is: AD/CDR1, Wild type, milbemycins and micafungin, I95, CSM pH 7.0, 30°C.
Setting [7] is: AD/pABC3, Control, milbemycins and micafungin, I95, CSM pH 7.0, 30°C.
Where [8] appears, read: EL1/TM2, G547R, milbemycins and micafungin, I95, CSM pH 7.0, 30°C.
Setting [9] is: EL3, Q714K, milbemycins and micafungin, I95, CSM pH 7.0, 30°C.

Chain of Cdr1p ATPase (P43071 whole entry): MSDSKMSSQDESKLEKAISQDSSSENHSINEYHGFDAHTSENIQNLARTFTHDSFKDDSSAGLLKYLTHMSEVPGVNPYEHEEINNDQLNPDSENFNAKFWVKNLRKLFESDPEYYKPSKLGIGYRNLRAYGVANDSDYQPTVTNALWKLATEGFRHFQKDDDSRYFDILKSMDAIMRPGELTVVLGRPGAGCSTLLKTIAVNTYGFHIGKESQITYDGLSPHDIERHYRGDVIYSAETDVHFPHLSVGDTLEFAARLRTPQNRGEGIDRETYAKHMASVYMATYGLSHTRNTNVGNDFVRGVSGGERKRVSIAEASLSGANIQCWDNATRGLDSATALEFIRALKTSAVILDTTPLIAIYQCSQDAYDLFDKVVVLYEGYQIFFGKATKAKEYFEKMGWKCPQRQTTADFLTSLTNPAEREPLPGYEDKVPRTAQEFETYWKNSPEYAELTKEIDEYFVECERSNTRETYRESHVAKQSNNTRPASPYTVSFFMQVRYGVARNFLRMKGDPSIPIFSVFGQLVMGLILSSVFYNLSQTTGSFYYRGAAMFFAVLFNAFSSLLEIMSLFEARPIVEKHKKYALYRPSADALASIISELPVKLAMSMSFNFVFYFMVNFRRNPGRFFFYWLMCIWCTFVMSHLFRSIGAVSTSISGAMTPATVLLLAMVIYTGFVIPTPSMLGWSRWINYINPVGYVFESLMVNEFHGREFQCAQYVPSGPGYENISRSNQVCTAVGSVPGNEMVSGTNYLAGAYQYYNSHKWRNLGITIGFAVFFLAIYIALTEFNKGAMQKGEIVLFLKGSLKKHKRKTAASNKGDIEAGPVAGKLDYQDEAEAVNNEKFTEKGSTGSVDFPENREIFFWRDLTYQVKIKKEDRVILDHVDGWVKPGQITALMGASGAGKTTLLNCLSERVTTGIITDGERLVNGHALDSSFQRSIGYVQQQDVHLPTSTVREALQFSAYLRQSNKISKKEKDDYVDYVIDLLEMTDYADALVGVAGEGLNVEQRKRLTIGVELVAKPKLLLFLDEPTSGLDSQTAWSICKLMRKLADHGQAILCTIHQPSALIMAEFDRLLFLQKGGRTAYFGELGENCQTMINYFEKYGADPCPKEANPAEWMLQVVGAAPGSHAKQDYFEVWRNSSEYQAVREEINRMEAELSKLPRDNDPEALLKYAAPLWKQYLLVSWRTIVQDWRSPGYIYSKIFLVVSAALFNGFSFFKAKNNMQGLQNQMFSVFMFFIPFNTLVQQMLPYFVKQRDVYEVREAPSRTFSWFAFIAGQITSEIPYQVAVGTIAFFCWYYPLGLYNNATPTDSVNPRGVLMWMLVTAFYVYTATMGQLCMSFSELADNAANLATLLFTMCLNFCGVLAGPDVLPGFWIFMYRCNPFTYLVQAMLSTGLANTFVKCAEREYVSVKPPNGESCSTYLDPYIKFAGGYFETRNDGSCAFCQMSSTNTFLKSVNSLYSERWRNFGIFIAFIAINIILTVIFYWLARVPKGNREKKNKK

With Milbemycin α26, the MIC (against EL4-2 (CaCdr1p Q1226R) (setting [2]); against TM5 (CaCdr1p V674F) (setting [3]); against EL6 (CaCdr1p Q1445R) (setting [4]); against EL4-1 (CaCdr1p Q1226K) (setting [5]); in test [1] (setting [6]); in the test on AD/pABC3 (Control) (setting [7])) was 8 µg/mL each time. Further, the MIC with EL1/TM2 (CaCdr1p G547R) (setting [8]) and in the test on EL3 (CaCdr1p Q714K) (setting [9]) was 8 µg/mL throughout.
For `C[C@@H]1C[C@@H]([C@H](O)CC2CC(=O)NC(=O)C2)C(=O)[C@@H](C)C1` [Cycloheximide], the MIC (as a rule, the smallest concentration in the dilution series that meets the test's criterion for growth inhibition) against EL4-2 (CaCdr1p Q1226R) (Saccharomyces cerevisiae, pH 7) worked out at 1 µg/mL; with TM5 (CaCdr1p V674F) (Saccharomyces cerevisiae, pH 7) it was 1 µg/mL; in the test on EL6 (CaCdr1p Q1445R) (Saccharomyces cerevisiae, pH 7), 2 µg/mL; in the test on EL4-1 (CaCdr1p Q1226K) (Saccharomyces cerevisiae, pH 7), 0.5 µg/mL; in test [1] (Saccharomyces cerevisiae, pH 7), 1 µg/mL; against AD/pABC3 (Control) (Saccharomyces cerevisiae, pH 7), 0.008 µg/mL. Besides, the MIC was found to be 0.5 µg/mL in the test on EL1/TM2 (CaCdr1p G547R) (Saccharomyces cerevisiae, pH 7) and 1 µg/mL with EL3 (CaCdr1p Q714K) (Saccharomyces cerevisiae, pH 7).
Consider `CC1=C[C@H]2C(=O)O[C@H]3C[C@@H](C/C=C(\C)C[C@@H](C)/C=C/C=C(\C)[C@]2(O)[C@H](O)[C@@H]1O)O[C@@]1(CC[C@H](C)[C@@H](C)O1)C3` [Milbemycin β11], for which the MIC (in the test with EL4-2 (CaCdr1p Q1226R) (setting [2]); against TM5 (CaCdr1p V674F) (setting [3]); in the test on EL6 (CaCdr1p Q1445R) (setting [4]); with EL4-1 (CaCdr1p Q1226K) (setting [5]); in test [1] (setting [6]); against AD/pABC3 (Control) (setting [7])) was more than 8 µg/mL throughout. In addition, the MIC against EL1/TM2 (CaCdr1p G547R) (setting [8]) and with EL3 (CaCdr1p Q714K) (setting [9]) was more than 8 µg/mL throughout.
Consider `COC(=O)c1ccccc1-c1c2ccc(=N)cc-2oc2cc(N)ccc12` [Rhodamine 123], for which the MIC against EL4-2 (CaCdr1p Q1226R) (Saccharomyces cerevisiae, pH 7) came out at 200 µM; against TM5 (CaCdr1p V674F) (Saccharomyces cerevisiae, pH 7) it was 150 µM; in the test on EL6 (CaCdr1p Q1445R) (Saccharomyces cerevisiae, pH 7) it was 200 µM; with EL4-1 (CaCdr1p Q1226K) (Saccharomyces cerevisiae, pH 7), 150 µM; in [1] (Saccharomyces cerevisiae, pH 7), 300 µM; against AD/pABC3 (Control) (Saccharomyces cerevisiae, pH 7) it was 8 µM. Further, the minimum inhibitory concentration (MIC) against EL1/TM2 (CaCdr1p G547R) (Saccharomyces cerevisiae, pH 7) was 150 µM; against EL3 (CaCdr1p Q714K) (Saccharomyces cerevisiae, pH 7), 200 µM.
Turning to D-NH2-FFKWQRRR-CONH2 + Mtr [RC21], the IC50 (as a rule, the concentration that gives 50% inhibition) with Cdr1p ATPase came to 1300 nM.
On to `CC(C)=CC(=O)OCC1=C[C@H]2C(=O)O[C@H]3C[C@@H](C/C=C(\C)C[C@@H](C)/C=C/C=C4\CO[C@H]([C@@H]1O)[C@@]42O)O[C@@]1(CC[C@H](C)[C@@H](C)O1)C3` [Milbemycin α11], for which the MIC is 4 µg/mL in the test with EL4-2 (CaCdr1p Q1226R) (setting [2]); more than 8 µg/mL against TM5 (CaCdr1p V674F) (setting [3]); 4 µg/mL in the test with EL6 (CaCdr1p Q1445R) (setting [4]); 8 µg/mL in the test with EL4-1 (CaCdr1p Q1226K) (setting [5]); 4 µg/mL in [1] (setting [6]); 4 µg/mL against AD/pABC3 (Control) (setting [7]). The values for the MIC against EL1/TM2 (CaCdr1p G547R) (setting [8]) and with EL3 (CaCdr1p Q714K) (setting [9]) were 8 µg/mL and 4 µg/mL, respectively.
In the case of `C=CC[C@@H]1/C=C(\C)C[C@H](C)C[C@H](OC)[C@H]2O[C@@](O)(C(=O)C(=O)N3CCCC[C@H]3C(=O)O[C@H](/C(C)=C/[C@@H]3CC[C@@H](O)[C@H](OC)C3)[C@H](C)[C@@H](O)CC1=O)[C@H](C)C[C@@H]2OC` [FK506], the MIC against EL4-2 (CaCdr1p Q1226R) (Saccharomyces cerevisiae, pH 7) was determined as 40 µg/mL; with TM5 (CaCdr1p V674F) (Saccharomyces cerevisiae, pH 7), 40 µg/mL; against EL6 (CaCdr1p Q1445R) (Saccharomyces cerevisiae, pH 7) it was 40 µg/mL; against EL4-1 (CaCdr1p Q1226K) (Saccharomyces cerevisiae, pH 7), 40 µg/mL; in [1] (Saccharomyces cerevisiae, pH 7), 40 µg/mL; against AD/pABC3 (Control) (Saccharomyces cerevisiae, pH 7) it was 0.313 µg/mL. For the same molecule, the MIC in the test on EL1/TM2 (CaCdr1p G547R) (Saccharomyces cerevisiae, pH 7) turned out to be 40 µg/mL; in the test on EL3 (CaCdr1p Q714K) (Saccharomyces cerevisiae, pH 7) it was 40 µg/mL.
`CN1CCN(CCCN2c3ccccc3Sc3ccc(C(F)(F)F)cc32)CC1` [Trifluoperazine]: the MIC with EL4-2 (CaCdr1p Q1226R) (Saccharomyces cerevisiae, pH 7) came out at 40 µM; against TM5 (CaCdr1p V674F) (Saccharomyces cerevisiae, pH 7), 20 µM; in the test on EL6 (CaCdr1p Q1445R) (Saccharomyces cerevisiae, pH 7), 80 µM; against EL4-1 (CaCdr1p Q1226K) (Saccharomyces cerevisiae, pH 7), 40 µM; in test [1] (Saccharomyces cerevisiae, pH 7), 40 µM; with AD/pABC3 (Control) (Saccharomyces cerevisiae, pH 7), 5 µM. Also, the minimum inhibitory concentration (MIC) is 40 µM with EL1/TM2 (CaCdr1p G547R) (Saccharomyces cerevisiae, pH 7) and 40 µM in the test with EL3 (CaCdr1p Q714K) (Saccharomyces cerevisiae, pH 7).
As to `C[C@@H](c1ncncc1F)[C@](O)(Cn1cncn1)c1ccc(F)cc1F` [Voriconazole], the MIC was 6 µg/mL with EL4-2 (CaCdr1p Q1226R) (Saccharomyces cerevisiae, pH 7); 4 µg/mL with TM5 (CaCdr1p V674F) (Saccharomyces cerevisiae, pH 7); 10 µg/mL against EL6 (CaCdr1p Q1445R) (Saccharomyces cerevisiae, pH 7); 2.5 µg/mL with EL4-1 (CaCdr1p Q1226K) (Saccharomyces cerevisiae, pH 7); 8 µg/mL in test [1] (Saccharomyces cerevisiae, pH 7); 0.156 µg/mL with AD/pABC3 (Control) (Saccharomyces cerevisiae, pH 7). In addition, the MIC in the test on EL1/TM2 (CaCdr1p G547R) (Saccharomyces cerevisiae, pH 7) is 2.5 µg/mL; with EL3 (CaCdr1p Q714K) (Saccharomyces cerevisiae, pH 7), 8 µg/mL.
Milbemycin β9: the MIC was more than 8 µg/mL with EL4-2 (CaCdr1p Q1226R) (setting [2]); more than 8 µg/mL against TM5 (CaCdr1p V674F) (setting [3]); more than 8 µg/mL against EL6 (CaCdr1p Q1445R) (setting [4]); more than 8 µg/mL against EL4-1 (CaCdr1p Q1226K) (setting [5]); more than 8 µg/mL in [1] (setting [6]); 8 µg/mL against AD/pABC3 (Control) (setting [7]). Moreover, the MIC is more than 8 µg/mL against EL1/TM2 (CaCdr1p G547R) (setting [8]) and 8 µg/mL in the test with EL3 (CaCdr1p Q714K) (setting [9]).
